From patent US12595230B2, “Substituted 6,7-dihydro-5H-benzo[7]annulene compounds and their derivatives, processes for their preparation and therapeutic uses thereof” (Sanofi, priority 2020, dated 2026) come the findings set out here.

The target in this test is T1, ERα (Homo sapiens, UniProt P03372).
T1 construct: host or cells: MCF7
T1 sequence (P03372 1-595): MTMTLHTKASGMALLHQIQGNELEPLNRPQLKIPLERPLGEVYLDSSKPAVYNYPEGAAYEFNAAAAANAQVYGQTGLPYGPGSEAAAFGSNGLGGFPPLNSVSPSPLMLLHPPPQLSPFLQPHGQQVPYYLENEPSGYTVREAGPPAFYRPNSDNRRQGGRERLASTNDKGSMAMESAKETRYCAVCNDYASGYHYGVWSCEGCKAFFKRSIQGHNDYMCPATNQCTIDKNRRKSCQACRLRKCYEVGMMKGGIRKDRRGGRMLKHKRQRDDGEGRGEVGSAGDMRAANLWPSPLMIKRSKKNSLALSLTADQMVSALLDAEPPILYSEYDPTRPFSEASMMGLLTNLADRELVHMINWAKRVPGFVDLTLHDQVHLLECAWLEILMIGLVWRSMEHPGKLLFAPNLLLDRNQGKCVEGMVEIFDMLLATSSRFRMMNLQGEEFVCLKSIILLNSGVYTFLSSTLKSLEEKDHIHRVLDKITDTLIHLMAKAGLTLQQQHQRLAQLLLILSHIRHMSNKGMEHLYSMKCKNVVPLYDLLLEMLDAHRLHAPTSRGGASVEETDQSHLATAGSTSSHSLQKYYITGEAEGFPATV
Description: Estrogen receptor degradation activity: breast cancer cell ERα in cell western assay (MCF7 cells). The note with it: for % Degradation At 0.3 μM: 4 hours, relative to fulvestrant 0.1 μM positive control; for DC50: read-out: Degradation IC50. In kind it is cell-based. The method in brief: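 Compounds were applied to MCF7 cells in stripped-serum, phenol red-free medium for 4 h at final 0.3–0.0000018 μM, with fulvestrant (0.1 μM) as control. Value: IC50 (nM) for 50% ERα degradation.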

[1] abbreviates: 4 hours post compound addition, concentration which degrades 50% of the estrogen receptor.

In the case of `O=C(O)c1ccc2c(c1)CCCC(c1ccccc1C(F)(F)F)=C2c1ccc(CC2(F)CN(CCCF)C2)cc1` [Example 238, 9-(4-((3-fluoro-1-(3-fluoropropyl)azetidin-3-yl)methyl)phenyl)-8-(2-(trifluoromethyl)phenyl)-6,7-dihydro-5H-benzo[7]annulene-3-carboxylic acid], the “% Degradation At 0.3 μM” value stood at 81%. The DC50 under setting [1] is 1.2 nM.

Take `CC(C)C1CCc2cc(C(=O)O)ccc2C(c2ccc(CC3CN(CCCF)C3)cc2)=C1c1ccc(Cl)cc1Cl` (single isomer, unassigned) [Example 322, 8-(2,4-dichlorophenyl)-9-(4-((1-(3-fluoropropyl)azetidin-3-yl)methyl)phenyl)-7-isopropyl-6,7-dihydro-5H-benzo[7]annulene-3-carboxylic acid]: the “% Degradation At 0.3 μM” value was 87%. Moreover, under setting [1], the DC50 was 0.6 nM.

Take `CCOC(c1ccc(C2=C(c3ccc(Cl)cc3Cl)CCCc3cc(C(=O)O)ccc32)cc1)C1CN(CCCF)C1` (single isomer, unassigned; isomer 2) [Example 230, 8-(2,4-dichlorophenyl)-9-(4-(ethoxy(1-(3-fluoropropyl)azetidin-3-yl)methyl)phenyl)-6,7-dihydro-5H-benzo[7]annulene-3-carboxylic Acid Isomer 2]: the “% Degradation At 0.3 μM” value was found to be 78%. In addition, the DC50 under setting [1] stood at 0.7 nM.

In the case of `COC(c1ccc(C2=C(c3ccc(Cl)cc3Cl)CCCc3cc(C(=O)O)ccc32)cc1)C1CN(CCCF)C1` (single isomer, unassigned; isomer 2) [Example 228, 8-(2,4-dichlorophenyl)-9-(4-((1-(3-fluoropropyl)azetidin-3-yl)(methoxy)methyl)phenyl)-6,7-dihydro-5H-benzo[7]annulene-3-carboxylic Acid Isomer 2], the “% Degradation At 0.3 μM” value was determined as 76%. Besides, under setting [1], the DC50 was found to be 0.6 nM.

Take `O=C(O)c1ccc2c(c1)CCCC(c1cccc(F)c1C(F)(F)F)=C2c1ccc(CC2CN(CCC(F)F)C2)cc1` [Example 278, 9-(4-((1-(3,3-difluoropropyl)azetidin-3-yl)methyl)phenyl)-8-(3-fluoro-2-(trifluoromethyl)phenyl)-6,7-dihydro-5H-benzo[7]annulene-3-carboxylic acid]: the “% Degradation At 0.3 μM” value is listed as 84%. In addition, under setting [1], the IC50 – broadly, the concentration that inhibits the measured activity by half – was determined as 0.2 nM.

For `O=C(O)c1ccc2c(c1)CCCC(c1ccc(F)cc1F)=C2c1ccc(CC2CN(CCC(F)F)C2)cc1` [Example 281, 8-(2,4-difluorophenyl)-9-(4-((1-(3,3-difluoropropyl)azetidin-3-yl)methyl)phenyl)-6,7-dihydro-5H-benzo[7]annulene-3-carboxylic acid], the “% Degradation At 0.3 μM” value is given as 84%. The DC50 under setting [1] worked out at 0.4 nM.

`O=C(O)c1ccc2c(c1)CCCC(c1cccc(F)c1F)=C2c1ccc(CC2CN(CCCF)C2)cc1` [Example 22, 8-(2,3-difluorophenyl)-9-(4-((1-(3-fluoropropyl)azetidin-3-yl)methyl)phenyl)-6,7-dihydro-5H-benzo[7]annulene-3-carboxylic acid]: the “% Degradation At 0.3 μM” value is on record as 92%. In addition, under setting [1], the DC50 amounted to 0.3 nM.

For the compound `O=C(O)c1ccc2c(c1)CCCC(c1c(F)cccc1Cl)=C2c1ccc(CC2CN(CCCF)C2)cc1` [Example 220, 8-(2-chloro-6-fluorophenyl)-9-(4-((1-(3-fluoropropyl)azetidin-3-yl)methyl)phenyl)-6,7-dihydro-5H-benzo[7]annulene-3-carboxylic acid], the “% Degradation At 0.3 μM” value is reported as 87%. The DC50 under setting [1] came out at 0.3 nM.

For the compound `NC(c1ccc(C2=C(c3ccc(Cl)cc3Cl)CCCc3cc(C(=O)O)ccc32)cc1)C1CN(CCCF)C1` (single isomer, unassigned; isomer 2) [Example 244, 9-(4-(Amino(1-(3-fluoropropyl)azetidin-3-yl)methyl)phenyl)-8-(2,4-dichlorophenyl)-6,7-dihydro-5H-benzo[7]annulene-3-carboxylic Acid Isomer 2], the “% Degradation At 0.3 μM” value was determined as 86%. Also, the DC50 under setting [1] was found to be 13.6 nM.

As to `O=C(O)c1ccc2c(c1)CCCC(c1ccc(Cl)cc1Cl)=C2c1ccc(C(F)(F)C2CN(CCCF)C2)cc1` [Example 40, 8-(2,4-dichlorophenyl)-9-(4-(difluoro(1-(3-fluoropropyl)azetidin-3-yl)methyl)phenyl)-6,7-dihydro-5H-benzo[7]annulene-3-carboxylic acid], the “% Degradation At 0.3 μM” value is recorded as 91%. For the same compound, the DC50 under setting [1] was 0.4 nM.

For the compound `COc1c(C(=O)O)ccc2c1CCCC(c1ccc(F)cc1F)=C2c1ccc(CC2CN(CCCF)C2)cc1` [Example 270, 8-(2,4-difluorophenyl)-9-(4-((1-(3-fluoropropyl)azetidin-3-yl)methyl)phenyl)-4-methoxy-6,7-dihydro-5H-benzo[7]annulene-3-carboxylic acid], the “% Degradation At 0.3 μM” value was 100%. Moreover, the DC50 under setting [1] stood at 225 nM.

Consider `Cc1cc(C(F)(F)F)ccc1C1=C(c2ccc(CC3CN(CCCF)C3)cc2)c2ccc(C(=O)O)cc2CCC1` [Example 17, 9-(4-((1-(3-fluoropropyl)azetidin-3-yl)methyl)phenyl)-8-(2-methyl-4-(trifluoromethyl)phenyl)-6,7-dihydro-5H-benzo[7]annulene-3-carboxylic acid], for which the “% Degradation At 0.3 μM” value was found to be 90%. Further, under setting [1], the DC50 was 0.3 nM.

Turning to `O=C(O)c1ccc2c(c1)CCCC(c1nc(Cl)ccc1C(F)(F)F)=C2c1ccc(CC2CN(CCCF)C2)cc1` [Example 300, 8-(6-chloro-3-(trifluoromethyl)pyridin-2-yl)-9-(4-((1-(3-fluoropropyl)azetidin-3-yl)methyl)phenyl)-6,7-dihydro-5H-benzo[7]annulene-3-carboxylic acid], the “% Degradation At 0.3 μM” value was 88%. For the same compound, under setting [1], the DC50 was determined as 11.2 nM.

For the compound `Cc1cc(Cl)ccc1C1=C(c2ccc(CC3CN(CCCF)C3)cc2)c2ccc(C(=O)O)cc2OCC1` [Example 263, 4-(4-chloro-2-methylphenyl)-5-(4-((1-(3-fluoropropyl)azetidin-3-yl)methyl)phenyl)-2,3-dihydrobenzo[b]oxepine-8-carboxylic acid], the “% Degradation At 0.3 μM” value was determined as 90%. For the same compound, the DC50 under setting [1] stood at 0.8 nM.

For the compound `O=C(O)c1ccc2c(c1)CCCC(C1C[C@H]3CCC[C@H]3C1)=C2c1ccc(CC2CN(CCCF)C2)cc1` (single isomer, unassigned) [Example 336, 9-(4-((1-(3-fluoropropyl)azetidin-3-yl)methyl)phenyl)-8-(octahydropentalen-2-yl)-6,7-dihydro-5H-benzo[7]annulene-3-carboxylic acid], the “% Degradation At 0.3 μM” value worked out at 86%. In addition, the DC50 under setting [1] came out at 0.9 nM.

Take `O=C(O)c1ccc2c(c1)CCCC(c1cccc(C(F)(F)F)c1Cl)=C2c1ccc(CC2CN(CCC(F)F)C2)cc1` [Example 286, 8-(2-chloro-3-(trifluoromethyl)phenyl)-9-(4-((1-(3,3-difluoropropyl)azetidin-3-yl)methyl)phenyl)-6,7-dihydro-5H-benzo[7]annulene-3-carboxylic acid]: the “% Degradation At 0.3 μM” value was 88%. Moreover, under setting [1], the DC50 stood at 0.3 nM.

For the compound `O=C(O)c1ccc2c(c1)CCCC(c1ccc(Cl)cc1Cl)=C2c1ccc(C(F)C2CN(CCCF)C2)cc1` (single isomer, unassigned) [Example 43, 8-(2,4-dichlorophenyl)-9-(4-(fluoro(1-(3-fluoropropyl)azetidin-3-yl)methyl)phenyl)-6,7-dihydro-5H-benzo[7]annulene-3-carboxylic acid], the “% Degradation At 0.3 μM” value turned out to be 90%. Also, the DC50 under setting [1] stood at 0.4 nM.

With `O=C(O)c1ccc2c(c1)CCCC(c1ccc(Cl)cc1Cl)=C2c1ccc(CC2CN(CCCF)C2)cc1` [Example 2, 8-(2,4-dichlorophenyl)-9-(4-((1-(3-fluoropropyl)azetidin-3-yl)methyl)phenyl)-6,7-dihydro-5H-benzo[7]annulene-3-carboxylic Acid], the “% Degradation At 0.3 μM” value turned out to be 91%. The DC50 under setting [1] stood at 0.3 nM.

For the compound `O=C(O)c1ccc2c(c1)CCCC(c1cccc(F)c1C(F)F)=C2c1ccc(CC2CN(CCCF)C2)cc1` [Example 296, 8-(2-(difluoromethyl)-3-fluorophenyl)-9-(4-((1-(3-fluoropropyl)azetidin-3-yl)methyl)phenyl)-6,7-dihydro-5H-benzo[7]annulene-3-carboxylic acid], the “% Degradation At 0.3 μM” value is 91%. Moreover, under setting [1], the DC50 was 0.7 nM.

As for `O=C(O)c1ccc2c(c1)CCCC(c1ccc(Cl)cc1C(F)(F)F)=C2c1ccc(CC2(F)CN(CCCF)C2)cc1` [Example 237, 8-(4-chloro-2-(trifluoromethyl)phenyl)-9-(4-((3-fluoro-1-(3-fluoropropyl)azetidin-3-yl)methyl)phenyl)-6,7-dihydro-5H-benzo[7]annulene-3-carboxylic acid], the “% Degradation At 0.3 μM” value came out at 88%. Besides, the DC50 under setting [1] stood at 5.8 nM.

As to `CCC1CCc2cc(C(=O)O)ccc2C(c2ccc(CC3CN(CCCF)C3)cc2)=C1c1ccc(Cl)cc1` (single isomer, unassigned) [Example 329, 8-(4-chlorophenyl)-7-ethyl-9-(4-((1-(3-fluoropropyl)azetidin-3-yl)methyl)phenyl)-6,7-dihydro-5H-benzo[7]annulene-3-carboxylic acid], the “% Degradation At 0.3 μM” value was 89%. Also, under setting [1], the DC50 turned out to be 1.3 nM.
